Laboratory results reported in patent US20260262641A1 (priority 2023, published 2026).

Experiments:
[1] = tested on: ground pearl (Margarodes spp); assay: Field trial in kikuyu turf, control of ground pearl, Robina (Example 6); type: in vivo
Protocol: A field trial was conducted in kikuyu turf, to evaluate fenpyroximate for control of ground pearl (Margarodes spp). The trial was located at Robina, Queensland (−28.069442, 153.401817), in an area with a known infestation of ground pearl.
All treatments were applied using a hand boom fitted with XC08 nozzles, in a spray volume of 443 L/ha.
The ground pearl density by species was assessed prior to the first application and again 21 days after the third application by sampling 20 cores per plot and recording the number of eggs and adults. Turf vigor was assessed on a 0 to 10 rating scale (0=dead; 10=best quality/color) prior to the first application and 42 days after the third application.
(§1) All data was statistically analyzed using analysis of variance and Fisher's protected least significant different test (Fishers LSD). The level of significance for all tests was P<0.05.

[2] = tested on: couch mite (Aceria cynodoniensis); assay: Field trial in hybrid couch turfgrass, control of couch mite (Example 7); type: in vivo
Protocol: A field trial was conducted in hybrid couch turfgrass, to evaluate fenpyroximate for control of couch mite (Aceria cynodoniensis). The trial was located at Oxley Golf Club, Oxley Queensland (−27.57077, 152.99762). […] All treatments were applied using a hand boom fitted with XR11004 nozzles and in a spray volume of 430 L/ha.
The severity of couch mite damage to the terminal growth point (known as witches' broom) was assessed pre-spraying, then at 42 and 56 days after the second application. The density of couch mite was assessed pre-spraying and at 28 days after the second application. Turf quality was assessed on a 0 to 9 rating scale (0=dead; 9=best quality/color) prior to the first application and 14 days after the second application.
as §1

[3] = tested on: ground pearl (Margarodes spp); assay: Field trial in kikuyu turf, control of ground pearl, Robina (Example 6); type: in vivo; conditions: 56 DAA3 (head); 0=dead; 10=best quality/color; product rate mL/ha: Meridian 1200, Kohinor 350 SC 1500, Fenpyroximate 50 SC 4000; each with Stamina B 20000
[4] = tested on: redlegged earth mite (H. destructor; RLEM); assay: whole plant or invertebrate
Protocol: On the 14th of May 2022, H. destructor were collected from capeweed (Arctotheca calendula) in South Morang, Victoria (−37.625, 145.110), a site with no known history of insecticide application. Mites were collected via suction using a Stihl SH55 blower vacuum, placed in plastic containers with paper towel and vegetation, and transported back to the laboratory, where they were stored at 4° C. until testing.
Serial dilutions were prepared for each insecticide (Table 1), with the addition of a non-ionic surfactant (Tween 20) at 0.01% to aid the spread of the insecticide and ensure even coating. […] Nine concentrations of pyridaben ranging from the proposed field rate of 1480 mL diluted in 100 L of water (1998 mg a.i./L) to 1×10^−5 were serially diluted and tested along with a water control. Eight concentrations of omethoate, ranging from 10 times the field rate of 100 mL diluted in 100 L of water (290 mg a.i./L) to 1×10^−5, were tested along with a water control. Seven concentrations of bifenthrin, ranging from 10 times the field rate of 40 mL diluted in 100 L of water (100 mg a.i./L) to 1×10^−5, were tested along with a water control. For each insecticide concentration tested, approximately 10 mL of solution was poured into a 15 mL plastic vial and swirled to ensure a complete coating, with excess liquid removed. Six vials were coated per concentration and were left to dry overnight. Control vials were treated in the same way, except water (with the addition of 0.01% Tween) was used.
Approximately eight individual H. destructor were then placed into each vial along with 2-3 leaves of common vetch (Vicia sativa), which provided food and humidity. Vials were then sealed with a screw lid and placed in a controlled temperature cabinet at 18° C. After 24-hours exposure, mites were scored as alive (moving freely), incapacitated (inhibited movement), or dead (no movement over a 5 second period).
Dose-response curves were generated by plotting percentage mortality against log concentration. […] Logistic regression is well suited for the analysis of binary response data (e.g., dead/alive). All analyses were conducted using R version 3.3.1 (R Development Core Team 2022).

[5] = 21 days after third application, product rate mL or g/ha: Meridian 1200, Kohinor 350 SC 1500, Fenpyroximate 50 SC 4000 (200 g ai/ha), each with Stamina B 20000
[6] = Pre-spray (baseline), 20 cores per plot
[7] = Halotydeus destructor, 24 h, read-out: % RLEM mortality

Cc1nn(C)c(Oc2ccccc2)c1C=NOCc1ccc(C(=O)OC(C)(C)C)cc1 [Fenpyroximate]
Ground pearls/plot, Adults, 21 DAA3 [1, 5]: 1.0 ab ground pearls/plot
Ground pearls/plot, Eggs, 21 DAA3 [1, 5]: 1.0 abc ground pearls/plot
Turf vigor (0-10), Pre-spray ([1]; Pre-spray (baseline), 0=dead, 10=best quality/color): 5.1
Ground pearls/plot, Adults, Pre-spray [1, 6]: 6.7 ground pearls/plot
Ground pearls/plot, Eggs, Pre-spray [1, 6]: 4.0 ground pearls/plot
density of ground pearl eggs and adults (in words) ([1]; versus untreated, P<0.05): significantly reduced
turf vigor (in words) ([1]; versus untreated, P<0.05): significantly improved
Couch mites/3 terminals, 28 DAA2 ([2]; 28 DAA2, product rate mL/ha: Abazine Miticide 1350, Fenpyroximate 50 SC 2000): 45.8 mites/3 terminals
Turf quality (0-9), 14 DAA2 ([2]; 14 days after second application, 0=dead, 9=best quality/color, product rate mL/ha: Abazine Miticide 1350, Fenpyroximate 50 SC 2000): 5.1
% Severity mite damage, 42 DAA2 ([2]; 42 days after second application, product rate mL/ha: Abazine Miticide 1350, Fenpyroximate 50 SC 2000 (100 g ai/ha)): 7.0 a %
% Severity mite damage, 56 DAA2 ([2]; 56 days after second application, product rate mL/ha: Abazine Miticide 1350, Fenpyroximate 50 SC 2000 (100 g ai/ha)): 6.5 a %
Couch mites/3 terminals, Pre-spray ([2]; Pre-spray (baseline)): 130.5 mites/3 terminals
Turf quality (0-9), Pre-spray ([2]; Pre-spray (baseline), 0=dead, 9=best quality/color): 4.5
% Severity mite damage, Pre-spray ([2]; Pre-spray (baseline), witches' broom): 40.0%
density of couch mite (in words) ([2]; versus untreated, P<0.05): significantly both reduced
turf quality (in words) ([2]; versus untreated, P<0.05): improved
Turf vigor (0-10), 56 DAA3 [3]: 6.2 a
concentrations at which mite mortality was observed ([4]; 24 hours exposure): greater than 50 mg a.i./L
mortality at 0.01 µg/mL [4, 7]: 0%
mortality at 0.1 µg/mL [4, 7]: 0%
mortality at 1 µg/mL [4, 7]: 0%
mortality at 10 µg/mL [4, 7]: 0%
mortality at 30 µg/mL [4, 7]: 0%
mortality at 50 µg/mL [4, 7]: 6%
mortality at 100 µg/mL [4, 7]: 30.5%
mortality at 300 µg/mL [4, 7]: 93.8%
mortality at 500 µg/mL [4, 7]: 100%
mortality at 1000 µg/mL [4, 7]: 98.7%
control of RLEM ([4]; concentration of 300 g a.i./L (as printed in text)): 93.8%
control of RLEM ([4]; concentration of 500 g a.i./L (as printed in text)): 100%
efficacy against RLEM (in words) ([4]; laboratory bioassay, 24 hours exposure): highly efficacious
